How the values were obtained:
MDR1 (P-glycoprotein) = target: T1, MDR1 (P-glycoprotein) (Homo sapiens, UniProt P08183); assay: MDR1-MDCK permeability / efflux (Biological Example 3); format: in vitro ADME; conditions: MDR1-MDCK cells, pH 7.4; for efflux ratio at 1 μM: dog
T1 construct: expressed in transfected cells; host or cells: MDR1-MDCK cells
Method: The blood brain barrier (BBB) separates circulating blood from the extracellular fluid of the central nervous system (CNS). The passive membrane permeability (Papp) and MDR1 (P-glycoprotein) substrate efflux potential are determined using the MDR1-MDCK cell line as an in vitro model of the effective permeability of a compound through the BBB. A bidirectional assay was conducted in pre-plated MDR1-MDCK cells using a 12 or 96-well plate in the absence or presence of MDR1 inhibitor (GF120918 or Valspodar). Assays were run in duplicate in transport buffer (HBSS, pH 7.4) for 90 or 120 min (minutes) at 37° C., using a test article concentration of 1 μM. Monolayer integrity was confirmed using Lucifer yellow, and appropriate positive controls for passive permeability and MDR1 transport were included in each experiment. Following incubation, samples from donor and receiver compartments are removed and quenched with acetonitrile containing an appropriate internal standard (IS). Protein was precipitated by centrifugation for 10 min at 3220 g, and supernatants diluted in ultra-pure water (if necessary) prior to analysis by LC-MS/MS using appropriate MRM transitions for analytes and IS. Papp (apparent permeability expressed in cm/sec [centimeter/second]) values were calculated according to the following equation:
[formula] where VR is the solution volume in the receiver chamber (apical or basolateral side), Area is the surface area for the insert membrane), Time is incubation time expressed in seconds, CR is the peak area ratio (analyte/IS) in the receiver chamber, CA is the average of the initial and final concentrations in the donor chamber, and Co is the initial peak area ratio in the donor chamber. Papp was determined in both the apical to basolateral (A→B) and basolateral to apical (B→A) directions.
Monolayer efflux ratios (ER) were derived using the following equation: […]
Compounds with an MDR1-MDCK efflux ratio above 20 are not expected to cross the blood brain barrier.

[1] = Metabolic stability in human liver microsomes (Biological Example 2); format: in vitro ADME; conditions: hepatic clearance (CLhep) scaled from human liver microsomes, 1 μM, well-stirred model
Method: Metabolic stability of select compounds was evaluated in human liver microsomes (from Corning or XenoTech, LLC) using a 96-well plate assay format. Compounds were incubated at 37° C. at 1 μM final concentration in the microsomal matrix (0.5 mg/mL total protein) in the presence or absence of NADPH cofactor. An NADPH regenerating system, comprised of NADP, MgCl2, isocitric acid, and isocitrate dehydrogenase, was used in the assay. Enzymatic reactions were conducted for 0, 5, 10, 20, 30, or 60 min before termination by addition of acetonitrile containing tolbutamide and labetalol internal standards (100 ng/mL). After shaking for 10 min, plates were subjected to centrifugation (4000 rpm at 4° C.) for 20 min and supernatants mixed 1:3 with HPLC grade water. Samples were analyzed by LC-MS/MS using appropriate MRM transitions for each analyte and internal standard (IS). Analyte/IS peak area ratios were used to determine percent compound remaining at each time point. Intrinsic clearance (Clint; expressed as mL·min^−1·mg^−1) was calculated from the first order elimination constant (k, min^−1) of test article decay and the volume of the incubation. These values were scaled to intrinsic organ clearance (Clint) using human specific scaling factors (48.8 mg microsomal protein per g liver; 25.7 g liver per kg body weight). Organ Clint was subsequently converted to hepatic clearance, HLM, (CLhep, mL·min-1·kg-1) using the well-stirred model of hepatic elimination, where Qh is human hepatic blood flow (20.7 mL·min-1·kg-1).
CLhep is the projected human clearance in the liver based on the above in vitro assay. A lower value is indicative of less compound being removed by the liver.

T1 sequence (P08183 whole entry): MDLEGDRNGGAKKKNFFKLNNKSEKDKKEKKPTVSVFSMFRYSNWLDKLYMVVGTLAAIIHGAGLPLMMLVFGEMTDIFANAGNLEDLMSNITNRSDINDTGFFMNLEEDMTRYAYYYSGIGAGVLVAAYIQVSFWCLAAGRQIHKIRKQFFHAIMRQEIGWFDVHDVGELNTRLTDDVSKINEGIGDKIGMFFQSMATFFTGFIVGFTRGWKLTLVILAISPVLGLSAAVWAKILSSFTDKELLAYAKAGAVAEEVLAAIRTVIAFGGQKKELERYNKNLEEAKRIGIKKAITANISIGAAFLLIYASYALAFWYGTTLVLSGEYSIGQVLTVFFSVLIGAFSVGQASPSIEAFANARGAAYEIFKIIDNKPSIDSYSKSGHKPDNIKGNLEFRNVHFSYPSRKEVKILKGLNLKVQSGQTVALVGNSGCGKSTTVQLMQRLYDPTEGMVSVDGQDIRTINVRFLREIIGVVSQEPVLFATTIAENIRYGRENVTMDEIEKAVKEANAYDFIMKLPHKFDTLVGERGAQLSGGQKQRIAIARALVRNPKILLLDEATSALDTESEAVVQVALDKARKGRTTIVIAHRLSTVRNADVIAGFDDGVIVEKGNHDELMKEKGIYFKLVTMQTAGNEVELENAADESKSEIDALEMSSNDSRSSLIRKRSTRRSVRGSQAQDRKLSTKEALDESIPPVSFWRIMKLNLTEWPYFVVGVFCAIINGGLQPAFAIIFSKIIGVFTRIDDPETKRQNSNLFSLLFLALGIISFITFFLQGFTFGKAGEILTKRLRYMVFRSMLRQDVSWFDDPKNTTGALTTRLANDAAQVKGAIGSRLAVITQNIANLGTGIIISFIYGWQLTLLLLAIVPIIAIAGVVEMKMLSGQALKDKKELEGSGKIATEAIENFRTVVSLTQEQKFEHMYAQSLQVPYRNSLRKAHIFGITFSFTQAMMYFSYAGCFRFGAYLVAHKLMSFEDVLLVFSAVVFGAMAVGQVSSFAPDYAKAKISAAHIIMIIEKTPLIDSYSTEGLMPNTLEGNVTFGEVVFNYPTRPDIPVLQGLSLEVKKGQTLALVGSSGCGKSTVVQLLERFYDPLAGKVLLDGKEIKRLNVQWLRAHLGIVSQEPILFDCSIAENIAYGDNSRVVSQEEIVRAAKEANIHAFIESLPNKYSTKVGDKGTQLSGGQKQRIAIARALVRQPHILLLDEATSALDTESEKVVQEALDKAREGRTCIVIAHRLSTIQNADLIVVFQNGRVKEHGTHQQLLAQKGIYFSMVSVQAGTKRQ

Row | efflux ratio at 1 μM (MDR1 (P-glycoprotein)) | MDCK-MDR1 Efflux Avg (MDR1 (P-glycoprotein); efflux ratio, 1 μM) | HLM Avg [1] | SMILES
1 | 110 | 110 | 3.6 mL/min/kg | CCNc1nc(Nc2cn([C@H]3C[C@H]3C(N)=O)nc2C2CC2)ncc1C(F)(F)F (single isomer, unassigned) [Example 7, (1,2-cis)-2-(3-cyclopropyl-4-((4-(ethylamino)-5-(trifluoromethyl)pyrimidin-2-yl)amino)-1H-pyrazol-1-yl)cyclopropanecarboxamide]
2 | 144 |  | 2.6 mL/min/kg | CCNc1nc(Nc2cc([C@H]3C[C@H]3C(N)=O)nn2C2CC2)ncc1C(F)(F)F [Comparative Example A, reference compound]
